The numbers were not newly measured in US20150065545A1, “Transdermal Delivery of Anastrozole for Systemic Effect” (Professional Compounding Centers of America, priority 2013, published 2015), which cites them from elsewhere.

Each structure is given as a SMILES string.

The conditions of data set [1]: after the use of anastrozole for about 7 days.
For data set [2] the following is noted: men with hormone disorders (elevated estradiol) prescribed anastrozole.

For the compound `CC(C)(C#N)c1cc(Cn2cncn2)cc(C(C)(C)C#N)c1` [anastrozole, 1,3-benzenediacetonitrile, a, a, a′, a′-tetramethyl-5-(1H-1,2,4-triazol-1-ylmethyl)], the “increase of natural testosterone levels” value in data set [1] was not above 60%. In data set [2], the estradiol levels entry was “significant decrease”.
